Data as given in publication PMC8044192 (Scientific Reports, 2021).

Legend:
[1] = Oral glucose tolerance test in DIO mice; type: in vivo, C57BL/6J mice; conditions: study 2; treatment day 12; 4 h fast; 2 g/kg oral glucose; blood glucose 0–240 min; compared to vehicle dosing
Method: In study 2, an oral glucose tolerance test (OGTT) was performed one week prior to treatment start (day -7) and on treatment day 12. Animals were fasted for 4 h prior to OGTT. At t = 0 an oral glucose load (2 g/kg glucose; 200 mg/mL, Fresenius Kabi, Sweden) was administered via a gastrically placed tube. Blood samples for measuring blood glucose were collected from the tail vein at t = 0, 15, 30, 60, 120, 180, 240 min. A pre-OGTT blood sample was collected at − 60 min (OGTT on day − 7) and − 240 min (OGTT on treatment day 12). Glucose area under the curve (AUC) calculations were determined as total AUC from the sampling period of 0 to 240 min.

[2] = Study 2: body weight and food intake in DIO mice, 14 days of treatment then 6 days of wash-out; type: in vivo, C57BL/6J mice; conditions: linagliptin 3 mg/kg or Y2R agonist 3 or 30 nmol/kg s.c. once daily for 14 days
Method: (§1) The Danish Animal Experiments Inspectorate approved all experiments which were conducted using internationally accepted principles for the use of laboratory animals (license #2013-15-2934-00784). The study was carried out in compliance with the ARRIVE guidelines. 99 C57BL/6J mice were from Janvier Labs (Le Genest Saint Isle, France) and housed in a controlled environment (12 h light/dark cycle, lights on at 3 AM, 21 ± 2 °C, humidity 50 ± 10%). Each animal was identified by an implantable subcutaneous microchip (PetID Microchip, E-vet, Haderslev, Denmark). Mice arrived at 5 weeks of age and were made diet-induced obese (DIO) by offering ad libitum access to tap water and high-fat diet (5.15 kcal/g; 60 kcal-% fat, 20 kcal-% carbohydrate, 20% kcal-% protein; D12492, Ssniff, Soest, Germany) for 26–27 weeks before study start. The mice were kept on the diet throughout the study.
(§2) DIO mice were randomized into individual treatment groups (n = 9–10 per group) based on body weight measured 3 days prior to initiation of drug treatment. Vehicle was phosphate-buffered saline added 5% mannitol. […] All drugs were administered once daily at 1 h before lights off. The first dose was given on day 0. Body weight and food intake was monitored daily during the treatment period.

[3] = Plasma analytes in DIO mice (active GLP-1, GIP, insulin, metabolic markers); type: in vivo, C57BL/6J mice; conditions: study 1, linagliptin 3 mg/kg/day s.c., 4 h post-dosing
Method: Terminal cardiac blood samples were collected in EDTA-coated tubes with (for GLP-1 and GIP analysis) or without (for DPP-IV enzyme analysis) 10 µl DPP-IV inhibitor/ml blood (Millipore, Copenhagen, Denmark) prior to sampling. Plasma was separated by centrifugation (3000 × g for 10 min at 4 °C) and immediately frozen on dry ice and stored at − 80 °C until further analysis. DPP-IV enzyme catalytic activity was determined as reported previously. Active GLP-1 and GIP levels were assessed by ELISA (#K150JWC, MesoScale Discovery, Rockville, MD; #27702, IBL, Fujioka, Japan) according to the manufacturer’s instructions. Plasma levels of insulin were measured by ELISA (#K152BZC, MesoScale Discovery, Rockville, MD), according to the manufacturer’s instructions.

[4] = Linagliptin exposure in plasma by LC-MS/MS; type: in vivo, C57BL/6J mice; conditions: DIO mice, 3 mg/kg/day s.c. once daily, day 14, before (approx. 24 h after previous dose) and 4 h after last dose
[5] = Study 1: body weight and food intake in DIO mice, linagliptin monotreatment for 14 days; type: in vivo, C57BL/6J mice; conditions: linagliptin 3 mg/kg/day s.c.
Method: as §1, §2

DPP-IV = target: T1, DPP-IV (Homo sapiens, UniProt P27487); assay: Degradation of synthetic NPY1–36 and PYY1–36 in human plasma (control samples); type: in vitro ADME; conditions: 30 pmol peptide in 85 µl PBS + 5 µl human EDTA-plasma, 37 °C, no linagliptin, MALDI-TOF-MS
T1 construct: Human plasma was used as source of endogenous DPP-IV; from tissue; host or cells: human EDTA-plasma from healthy adult donors
T1 sequence (P27487 39-766 limits assumed): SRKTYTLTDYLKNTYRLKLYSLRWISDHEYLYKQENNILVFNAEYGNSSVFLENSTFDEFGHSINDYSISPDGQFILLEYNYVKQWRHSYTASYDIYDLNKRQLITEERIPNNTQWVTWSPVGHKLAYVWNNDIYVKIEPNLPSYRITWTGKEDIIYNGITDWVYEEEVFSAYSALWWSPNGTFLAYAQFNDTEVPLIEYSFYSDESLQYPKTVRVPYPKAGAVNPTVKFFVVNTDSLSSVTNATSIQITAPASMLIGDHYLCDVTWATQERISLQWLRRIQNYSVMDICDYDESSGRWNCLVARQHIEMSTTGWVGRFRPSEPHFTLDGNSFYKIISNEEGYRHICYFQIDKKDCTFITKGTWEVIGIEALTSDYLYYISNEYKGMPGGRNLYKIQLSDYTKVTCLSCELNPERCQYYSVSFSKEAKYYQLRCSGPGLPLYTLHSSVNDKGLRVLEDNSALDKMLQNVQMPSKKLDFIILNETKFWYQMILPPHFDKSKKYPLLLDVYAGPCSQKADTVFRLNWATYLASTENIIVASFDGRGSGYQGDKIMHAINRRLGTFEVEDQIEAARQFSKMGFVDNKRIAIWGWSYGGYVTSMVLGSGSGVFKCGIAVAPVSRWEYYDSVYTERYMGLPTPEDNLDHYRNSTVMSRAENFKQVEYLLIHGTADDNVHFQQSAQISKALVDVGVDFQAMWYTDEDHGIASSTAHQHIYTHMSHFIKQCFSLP
Method: Human plasma was used as source of endogenous DPP-IV. Healthy adult individuals were enrolled after they provided written informed consent. […] Blood samples were collected from the cubital vein into blood collection tubes (EDTA-plasma). […] Plasma aliquots were transferred into 2 ml vials and stored − 80 °C. […] Parent NPY, PYY and corresponding fragments were determined by matrix-assisted laser desorption/ionization time-of-flight mass spectrometry (MALDI-TOF–MS) as described previously[34].

[6] = tested on: dipeptidyl peptidase IV (DPP-IV); conditions: in the circulation; inactivation by DPP-IV; cited from earlier work
Text: Defective pancreatic β-cell function is a key pathological hallmark in type 2 diabetes (T2D). Because progressive loss of β-cell insulin secretory capacity is associated with worsening hyperglycemia, targeting intrinsic β-cell activity is considered essential in T2D management. A canonical role of the gut-derived incretin hormone glucagon-like peptide-1 (GLP-1) is potentiation of glucose-stimulated insulin secretion by activation of GLP-1 receptors in islet β-cells. The incretin effect is estimated to account for approximately 50–70% of total insulin secreted following oral glucose administrat ...

Compound: CC#CCn1c(N2CCC[C@@H](N)C2)nc2c1c(=O)n(Cc1nc(C)c3ccccc3n1)c(=O)n2C [linagliptin]
- oral glucose tolerance [1]: significantly improved glucose tolerance
- food intake [2]: did not influence food intake
- terminal plasma insulin levels ([3]; day 14): unaffected
- plasma TNF-α concentration ([3]; terminal, 14 days): significantly reduced
- plasma pancreatic polypeptide ([3]; terminal, 14 days): unaffected
- plasma resistin concentration ([3]; terminal, 14 days): significantly reduced
- plasma total PYY ([3]; terminal, 14 days): unaffected
- plasma linagliptin exposure [4]: ~ 200 nM
- food intake ([5]; 14 days): essentially unaffected
- weight loss compared to vehicle controls ([5]; 14 days of treatment, p < 0.05): 2.8%

Compound: PYY: synthetic human full-length PYY1–36 used as DPP-IV substrate [peptide YY]
- fraction of PYY processed (DPP-IV; 18 h): 30%-50%

Compound: glucagon-like peptide-1 [GLP-1_7–36]
- circulatory half-life [6]: approximately 1 min

Compound: neuropeptide Y [NPY]
- fraction of NPY processed by DPP-IV (DPP-IV; 8 h): approximately two-thirds
